In article PMC9738062, “Selectively Halogenated Flavonolignans—Preparation and Antibacterial Activity” (International Journal of Molecular Sciences, 2022):

How the values were obtained:
DPPH radical scavenging = settings: 1,1-diphenyl-2-picrylhydrazyl radical scavenging
Procedure: (§1) To further elucidate how halogenation affects other properties of the flavonoids studied, their 2,2′-azino-bis-(3-ethylbenzothiazoline-6-sulfonic acid) cation (ABTS) and 1,1-diphenyl-2-picrylhydrazyl (DPPH) radical scavenging, the Folin–Ciocalteu reagent (FCR) reducing, the ferric-reducing antioxidant power (FRAP), and the anti-lipoperoxidation activities were evaluated by in vitro methods (Supplementary Information Tables S1 and S2).
(§2) The antiradical activity was evaluated by the ability to scavenge ABTS and DPPH radicals. Reducing capacity was assessed by the ability to reduce the Folin–Ciocalteu reagent (FCR) and ferric ions (FRAP). The ability to inhibit lipid peroxidation of pooled male rat microsomal liver membranes induced by tert-butyl hydroperoxide was also evaluated and the results were expressed as IC50 values.

[1] = Ferric reducing antioxidant power (FRAP); settings: Fe2+ equivalents
Procedure: as §1, §2

[2] = test system: Vibrio campbellii BAA 1118 (AI-1); assay: microbe, parasite or virus in culture; format: cell-based; settings: for EC50: Vibrio campbellii, BAA1118, 16 h, read-out: EC50 (concentration that halved the communication); for SI (selectivity index): ratio IC50 (viability) / EC50 (communication), BAA 1118
Source text: (§3) Commercially available strains of Vibrio campbellii were used to evaluate the ability of flavonoids and their derivatives to inhibit bacterial quorum sensing. V. campbellii uses two types of autoinducing molecules for its communication—N-acyl-homoserine lactones (Autoinducer I, AI-1, strain BAA 1118) and furanosyl borate diester (Autoinducer II, AI-2, strain BAA 1119). AI-1-based communication is mainly used by Gram-negative bacteria, while AI-2-based communication is found in both Gram-negative and Gram-positive bacteria. The mutant strains of V. campbellii BA1118 and BA1119 respond only to AI-1 or AI-2, respectively, and the response to the respective AI concentration is measured as luminescence. The higher the AI concentration, the higher the luminescence signal. The ability to inhibit the communication was expressed as the selectivity index (SI), calculated as the ratio between the concentration that halved the viability (IC50) and the concentration that halved the communication (EC50) of the respective V. campbellii strains. […] The antimicrobial activity of quorum-sensing inhibitors is undesirable because it creates a selection pressure and can lead to the development of resistance.
(§4) The inhibition of bacterial extracellular communication was measured using Vibrio campbellii strains BAA-1118 and BAA-1119. The experiment was performed according to the methods of Szemerédi et al.. Briefly, 5 × 10^5 CFU/mL (colony-forming units per milliliter) were seeded in an Autoinducer Bioassay medium (NaCl 17.5 g/L, MgSO4 12.3 g/L, Casamino acids 2 g/L, 10 mL of 1 M potassium phosphate pH 7.0, 10 mL of 0.1 M L-arginine, and 10 mL of glycerol in 970 mL of deionized water) in a 96-well plate. Immediately, the tested compounds were added at the final concentration of 0.2–200 µM and luminescence was recorded for 16 h by a SpectraMax i3x microplate reader set at 30 °C, an integration time of 10,000 ms, and shaking for 60 s before measurement. […] The selectivity index was calculated as the […]. The EC50 and IC50 were calculated using GraphPad Prism software version 5.00 for Windows with a nonlinear regression curve fit.

[3] = test system: Vibrio campbellii BAA 1119 (AI-2); assay: microbe, parasite or virus in culture; format: cell-based; settings: for EC50: Vibrio campbellii, BAA1119, 16 h, read-out: EC50 (concentration that halved the communication); for SI (selectivity index): ratio IC50 (viability) / EC50 (communication), BAA 1119
Source text: as §3, §4

[4] = test system: Vibrio campbellii BAA 1118 (AI-1); assay: Viability of the quorum-sensing reporter culture (resazurin assay), AI-1 strain; format: cell-based; settings: BAA1118, V. campbellii BAA 1118, resazurin assay, read-out: IC50 (concentration that halved the viability)
Source text: as §3, §4

[5] = ABTS cation radical scavenging; settings: vitamin C equivalent antioxidant capacity
Procedure: as §1, §2

[6] = Folin-Ciocalteu reagent reduction; settings: gallic acid equivalents
Procedure: as §1, §2

SMILES	IC50 (DPPH radical scavenging)	FRAP [Fe2+eq] [1]	EC50 [2]	SI (selectivity index) [2]	EC50 [3]	SI (selectivity index) [3]	IC50 [4]	ABTS [CEAC] [5]	FCR [GAE] [6]
O=C1c2c(O)cc(O)cc2OC(c2ccc(O)c(O)c2)C1O (stereo not drawn) [compound 1, taxifolin, reference compound]	2.91 µM	1.45 ± 0.07 Fe2+eq	63.7 ± 2.7 µM	1.1 ± 0.1	7.3 ± 0.3 µM	11.0 ± 0.6	71 ± 3 µM	1.08 ± 0.02 CEAC	1.92 ± 0.05 GAE
O=c1c(O)c(-c2ccc(O)c(O)c2)oc2cc(O)cc(O)c12 [compound 2, quercetin, reference compound]	2.06 µM	2.84 ± 0.02 Fe2+eq	15.9 ± 0.5 µM	1.5 ± 0.1	4.8 ± 0.2 µM	2.2 ± 0.2	24.5 ± 0.8 µM	2.87 ± 0.23 CEAC	2.33 ± 0.05 GAE
COc1cc(C2Oc3cc(-c4oc5cc(O)cc(O)c5c(=O)c4O)ccc3OC2CO)ccc1O (stereo not drawn) [compound 4, 2,3-dehydrosilybin AB, reference compound]	14.4 µM	0.72 ± 0.03 Fe2+eq	59.9 ± 2 µM	2.7 ± 0.2	10.2 ± 0.4 µM	2.5 ± 0.2	163 ± 3.8 µM	1.46 ± 0.08 CEAC	1.68 ± 0.03 GAE
COc1cc([C@@H]2Oc3c(O)cc(-c4oc5cc(O)cc(O)c5c(=O)c4O)cc3[C@H]2CO)ccc1O [compound 6, 2,3-dehydrosilychristin A, reference compound]	10.8 ± 0.4 µM	1.16 Fe2+eq	22.3 ± 1 µM	1.9 ± 0.2	11.1 ± 0.1 µM	0.99 ± 0.05	43 ± 1.5 µM	2.10 CEAC	2.43 GAE
O=C1c2c(cc(O)c(Br)c2O)O[C@H](c2ccc(O)c(O)c2)[C@H]1O [compound 7, 6-Bromotaxifolin]	7.77 µM	1.33 ± 0.03 Fe2+eq	38.9 ± 1.6 µM	1.5 ± 0.1	11.9 ± 0.5 µM	1.7 ± 0.2	59 ± 0.1 µM	0.97 ± 0.03 CEAC	1.70 ± 0.01 GAE
O=C1c2c(O)c(Br)c(O)c(Br)c2O[C@H](c2ccc(O)c(O)c2)[C@H]1O [compound 8, 6,8-dibromotaxifolin]	4.37 µM	2.20 ± 0.03 Fe2+eq	38.1 ± 2 µM	1.5 ± 0.1	10.1 ± 0.4 µM	10.8 ± 0.6	55.5 ± 1 µM	1.04 ± 0.05 CEAC	2.08 ± 0.04 GAE
O=c1c(O)c(-c2ccc(O)c(O)c2)oc2c(Br)c(O)cc(O)c12 [compound 9, 8-bromoquercetin]	2.44 µM	2.44 ± 0.06 Fe2+eq	25.6 ± 0.5 µM	1.08 ± 0.04	0.4 ± 0.02 µM	2.9 ± 0.3	27.8 ± 0.5 µM	2.92 ± 0.28 CEAC	2.01 ± 0.06 GAE
O=c1c(O)c(-c2ccc(O)c(O)c2)oc2c(Br)c(O)c(Br)c(O)c12 [compound 10, 6,8-dibromoquercetin]	3.59 µM	3.31 ± 0.14 Fe2+eq	7.3 ± 0.4 µM	1.9 ± 0.2	0.7 ± 0.02 µM	5.0 ± 0.3	13.8 ± 0.5 µM	2.63 ± 0.19 CEAC	1.70 ± 0.02 GAE
COc1cc([C@H]2Oc3cc([C@H]4Oc5cc(O)c(Br)c(O)c5C(=O)[C@@H]4O)ccc3O[C@@H]2CO)ccc1O [compound 11, 6-Bromosilybin A]	472 µM	0.072 ± 0.002 Fe2+eq	24.4 ± 0.7 µM	2.1 ± 0.1	9.4 ± 0.5 µM	5.5 ± 0.3	51.7 ± 0.7 µM	0.60 ± 0.04 CEAC	1.06 ± 0.04 GAE
